Legend:
[1] = molecular target: D(1A) dopamine receptor (Homo sapiens, UniProt P21728)
[2] = molecular target: 5-hydroxytryptamine receptor 2B (Homo sapiens, UniProt P41595); type: functional, cell-based
[3] = molecular target: T1, Sodium-dependent noradrenaline transporter (Homo sapiens, UniProt P23975)
[4] = molecular target: Sodium-dependent dopamine transporter (Homo sapiens, UniProt Q01959)
[5] = molecular target: Voltage-gated inwardly rectifying potassium channel KCNH2 (Homo sapiens, UniProt Q12809); type: functional; conditions: read-out: AC50
Sequence of Voltage-gated inwardly rectifying potassium channel KCNH2 (Q12809 whole entry): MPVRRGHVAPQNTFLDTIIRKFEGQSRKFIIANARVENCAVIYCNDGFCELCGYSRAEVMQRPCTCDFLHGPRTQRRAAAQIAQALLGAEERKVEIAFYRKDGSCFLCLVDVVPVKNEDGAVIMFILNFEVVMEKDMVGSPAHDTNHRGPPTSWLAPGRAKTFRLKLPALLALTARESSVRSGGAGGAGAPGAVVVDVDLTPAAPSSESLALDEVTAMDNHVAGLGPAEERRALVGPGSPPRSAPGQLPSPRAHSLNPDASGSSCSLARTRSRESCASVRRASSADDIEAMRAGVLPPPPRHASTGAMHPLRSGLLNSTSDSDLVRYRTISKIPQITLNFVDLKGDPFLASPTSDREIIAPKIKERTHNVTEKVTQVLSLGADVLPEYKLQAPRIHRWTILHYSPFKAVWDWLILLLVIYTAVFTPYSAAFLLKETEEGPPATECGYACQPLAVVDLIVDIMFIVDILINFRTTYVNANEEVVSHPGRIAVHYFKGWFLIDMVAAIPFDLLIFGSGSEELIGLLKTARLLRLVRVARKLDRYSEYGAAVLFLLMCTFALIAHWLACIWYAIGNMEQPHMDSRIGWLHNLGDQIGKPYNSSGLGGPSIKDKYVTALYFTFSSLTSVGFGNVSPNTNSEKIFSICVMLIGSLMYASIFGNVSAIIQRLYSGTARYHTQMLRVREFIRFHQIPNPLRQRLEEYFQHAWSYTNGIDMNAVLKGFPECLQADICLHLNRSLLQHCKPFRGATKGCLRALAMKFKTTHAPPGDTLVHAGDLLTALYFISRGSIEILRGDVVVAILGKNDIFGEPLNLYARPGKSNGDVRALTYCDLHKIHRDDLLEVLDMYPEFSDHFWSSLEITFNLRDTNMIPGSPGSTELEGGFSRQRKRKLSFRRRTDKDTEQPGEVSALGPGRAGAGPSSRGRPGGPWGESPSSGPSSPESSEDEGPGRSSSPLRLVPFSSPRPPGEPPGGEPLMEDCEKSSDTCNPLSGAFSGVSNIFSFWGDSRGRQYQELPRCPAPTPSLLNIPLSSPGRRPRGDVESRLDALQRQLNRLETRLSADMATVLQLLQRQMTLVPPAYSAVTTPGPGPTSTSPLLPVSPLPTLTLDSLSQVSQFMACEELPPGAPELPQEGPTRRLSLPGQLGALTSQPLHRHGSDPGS

[6] = molecular target: T2, Alpha-1A adrenergic receptor (Homo sapiens, UniProt P35348); type: functional, cell-based
T2 sequence (P35348 whole entry): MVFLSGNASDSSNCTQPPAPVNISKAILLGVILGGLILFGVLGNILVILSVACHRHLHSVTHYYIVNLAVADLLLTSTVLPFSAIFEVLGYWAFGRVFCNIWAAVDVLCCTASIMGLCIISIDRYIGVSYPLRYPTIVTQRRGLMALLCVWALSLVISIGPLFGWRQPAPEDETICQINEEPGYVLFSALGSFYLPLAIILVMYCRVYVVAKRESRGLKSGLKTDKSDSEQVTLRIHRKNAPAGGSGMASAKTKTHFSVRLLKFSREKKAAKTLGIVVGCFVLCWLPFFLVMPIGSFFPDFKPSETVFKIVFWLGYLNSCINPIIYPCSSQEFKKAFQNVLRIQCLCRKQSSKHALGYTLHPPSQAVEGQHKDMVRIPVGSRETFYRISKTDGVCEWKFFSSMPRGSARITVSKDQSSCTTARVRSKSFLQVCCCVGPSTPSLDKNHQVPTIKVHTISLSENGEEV

[7] = molecular target: T3, Muscarinic acetylcholine receptor M2 (Homo sapiens, UniProt P08172); type: functional, cell-based
T3 sequence (P08172 whole entry): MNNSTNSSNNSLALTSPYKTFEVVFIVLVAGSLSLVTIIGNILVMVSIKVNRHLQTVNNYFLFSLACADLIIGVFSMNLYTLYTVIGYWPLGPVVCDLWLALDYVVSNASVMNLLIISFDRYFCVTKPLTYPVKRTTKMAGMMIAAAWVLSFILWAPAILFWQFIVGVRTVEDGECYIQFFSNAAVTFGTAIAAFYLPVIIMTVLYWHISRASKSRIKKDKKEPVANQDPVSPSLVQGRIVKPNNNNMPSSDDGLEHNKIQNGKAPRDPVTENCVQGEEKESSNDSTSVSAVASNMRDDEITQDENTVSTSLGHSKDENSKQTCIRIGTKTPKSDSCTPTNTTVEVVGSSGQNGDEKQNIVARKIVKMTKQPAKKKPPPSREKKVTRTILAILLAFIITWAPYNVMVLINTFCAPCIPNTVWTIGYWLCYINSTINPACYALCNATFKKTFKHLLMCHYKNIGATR

[8] = molecular target: Gamma-aminobutyric acid receptor subunit alpha-1 (Rattus norvegicus, UniProt P62813)
Sequence of Gamma-aminobutyric acid receptor subunit alpha-1 (P62813 whole entry): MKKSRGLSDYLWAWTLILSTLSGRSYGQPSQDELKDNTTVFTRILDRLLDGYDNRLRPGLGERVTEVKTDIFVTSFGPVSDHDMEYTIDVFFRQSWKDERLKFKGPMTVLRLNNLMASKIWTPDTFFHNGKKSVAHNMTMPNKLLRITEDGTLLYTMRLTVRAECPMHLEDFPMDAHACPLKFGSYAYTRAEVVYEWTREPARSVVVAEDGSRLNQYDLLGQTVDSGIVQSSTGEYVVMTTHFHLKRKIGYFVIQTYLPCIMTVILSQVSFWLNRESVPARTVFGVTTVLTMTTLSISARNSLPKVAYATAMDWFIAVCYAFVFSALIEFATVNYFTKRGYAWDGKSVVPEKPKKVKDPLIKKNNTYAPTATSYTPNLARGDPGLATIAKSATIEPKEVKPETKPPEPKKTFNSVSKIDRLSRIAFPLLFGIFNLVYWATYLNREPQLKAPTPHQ

[9] = molecular target: Kappa-type opioid receptor (Homo sapiens, UniProt P41145)
Sequence of Kappa-type opioid receptor (P41145 whole entry): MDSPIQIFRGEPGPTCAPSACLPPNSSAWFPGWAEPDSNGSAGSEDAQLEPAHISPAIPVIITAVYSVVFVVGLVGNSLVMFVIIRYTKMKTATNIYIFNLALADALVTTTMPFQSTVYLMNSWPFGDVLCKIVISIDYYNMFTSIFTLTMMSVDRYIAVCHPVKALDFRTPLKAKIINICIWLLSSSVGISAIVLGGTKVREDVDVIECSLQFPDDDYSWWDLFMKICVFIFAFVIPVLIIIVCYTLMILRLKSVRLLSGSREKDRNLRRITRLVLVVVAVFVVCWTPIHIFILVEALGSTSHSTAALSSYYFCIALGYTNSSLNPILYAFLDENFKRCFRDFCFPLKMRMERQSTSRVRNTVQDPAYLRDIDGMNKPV

[10] = molecular target: T4, Amine oxidase [flavin-containing] A (Homo sapiens, UniProt P21397); type: functional
T4 sequence (P21397 whole entry): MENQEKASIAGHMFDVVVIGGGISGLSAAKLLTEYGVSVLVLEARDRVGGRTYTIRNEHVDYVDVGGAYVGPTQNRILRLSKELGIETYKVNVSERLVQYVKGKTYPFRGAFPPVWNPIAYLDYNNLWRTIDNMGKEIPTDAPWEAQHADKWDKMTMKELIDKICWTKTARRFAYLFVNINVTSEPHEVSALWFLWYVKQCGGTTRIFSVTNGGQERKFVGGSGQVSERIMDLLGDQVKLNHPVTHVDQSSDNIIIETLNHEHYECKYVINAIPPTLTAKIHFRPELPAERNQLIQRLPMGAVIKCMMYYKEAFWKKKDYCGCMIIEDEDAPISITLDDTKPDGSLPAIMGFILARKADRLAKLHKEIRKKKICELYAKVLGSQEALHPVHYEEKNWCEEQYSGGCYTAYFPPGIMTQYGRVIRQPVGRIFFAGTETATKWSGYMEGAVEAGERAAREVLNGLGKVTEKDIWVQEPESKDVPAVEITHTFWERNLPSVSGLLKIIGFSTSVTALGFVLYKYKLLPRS

[11] = molecular target: T5, Equilibrative nucleoside transporter 1 (Homo sapiens, UniProt Q99808)
T5 sequence (Q99808 whole entry): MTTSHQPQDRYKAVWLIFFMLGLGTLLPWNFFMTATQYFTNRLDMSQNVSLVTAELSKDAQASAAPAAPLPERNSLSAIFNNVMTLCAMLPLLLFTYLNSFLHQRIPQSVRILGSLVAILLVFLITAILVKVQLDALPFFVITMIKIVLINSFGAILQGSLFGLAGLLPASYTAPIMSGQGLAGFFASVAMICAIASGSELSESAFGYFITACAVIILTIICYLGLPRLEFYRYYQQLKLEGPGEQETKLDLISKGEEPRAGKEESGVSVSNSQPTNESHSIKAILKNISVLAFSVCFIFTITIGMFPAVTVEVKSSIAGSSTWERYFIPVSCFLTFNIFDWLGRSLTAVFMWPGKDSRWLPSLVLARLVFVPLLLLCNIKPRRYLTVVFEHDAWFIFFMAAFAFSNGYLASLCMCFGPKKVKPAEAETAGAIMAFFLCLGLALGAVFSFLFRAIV

[12] = molecular target: T1, Sodium-dependent noradrenaline transporter; remark: listed apart in the source
Further: assay procedure not described here.

Sequence of 5-hydroxytryptamine receptor 2B (P41595 whole entry): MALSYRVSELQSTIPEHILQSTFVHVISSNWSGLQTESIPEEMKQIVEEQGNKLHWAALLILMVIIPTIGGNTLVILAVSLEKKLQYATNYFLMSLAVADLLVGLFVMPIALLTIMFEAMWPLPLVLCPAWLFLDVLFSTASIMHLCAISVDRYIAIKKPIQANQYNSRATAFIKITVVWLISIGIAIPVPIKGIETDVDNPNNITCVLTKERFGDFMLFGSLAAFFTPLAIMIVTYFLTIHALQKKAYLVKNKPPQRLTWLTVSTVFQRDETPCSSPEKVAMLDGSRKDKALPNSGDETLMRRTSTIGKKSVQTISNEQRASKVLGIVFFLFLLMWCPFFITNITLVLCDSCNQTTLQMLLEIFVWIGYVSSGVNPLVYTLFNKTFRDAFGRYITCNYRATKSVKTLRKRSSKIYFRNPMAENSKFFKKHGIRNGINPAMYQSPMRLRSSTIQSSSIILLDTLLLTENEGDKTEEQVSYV
Sequence of D(1A) dopamine receptor (P21728 whole entry): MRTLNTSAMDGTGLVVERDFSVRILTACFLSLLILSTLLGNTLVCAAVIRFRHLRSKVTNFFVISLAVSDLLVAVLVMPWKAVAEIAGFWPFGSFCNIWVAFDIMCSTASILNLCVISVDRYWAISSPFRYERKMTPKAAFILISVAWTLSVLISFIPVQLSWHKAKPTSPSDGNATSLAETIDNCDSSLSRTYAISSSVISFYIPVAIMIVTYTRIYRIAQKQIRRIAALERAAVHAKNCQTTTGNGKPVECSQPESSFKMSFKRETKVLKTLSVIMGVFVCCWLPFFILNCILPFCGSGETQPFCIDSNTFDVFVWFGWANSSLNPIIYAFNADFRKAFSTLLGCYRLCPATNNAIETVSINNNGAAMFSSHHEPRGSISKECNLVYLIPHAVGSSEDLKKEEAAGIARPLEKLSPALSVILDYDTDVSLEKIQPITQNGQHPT
T1 sequence (P23975 whole entry): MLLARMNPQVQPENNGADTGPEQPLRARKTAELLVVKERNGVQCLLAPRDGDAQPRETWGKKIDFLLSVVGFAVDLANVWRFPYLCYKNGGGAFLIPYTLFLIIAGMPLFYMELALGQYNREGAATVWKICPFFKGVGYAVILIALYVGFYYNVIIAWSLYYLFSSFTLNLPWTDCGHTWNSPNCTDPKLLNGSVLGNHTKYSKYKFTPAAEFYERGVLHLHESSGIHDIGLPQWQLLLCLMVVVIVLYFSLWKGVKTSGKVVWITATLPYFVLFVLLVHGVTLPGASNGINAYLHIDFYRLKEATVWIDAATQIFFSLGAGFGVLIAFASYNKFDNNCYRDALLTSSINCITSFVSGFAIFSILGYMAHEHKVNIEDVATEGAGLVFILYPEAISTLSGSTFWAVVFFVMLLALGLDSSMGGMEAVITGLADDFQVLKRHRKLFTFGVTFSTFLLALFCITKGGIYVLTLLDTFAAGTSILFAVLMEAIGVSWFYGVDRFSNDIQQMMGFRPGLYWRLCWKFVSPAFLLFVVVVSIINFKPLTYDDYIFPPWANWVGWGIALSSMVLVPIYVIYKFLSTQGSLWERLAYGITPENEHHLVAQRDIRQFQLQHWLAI
Sequence of Sodium-dependent dopamine transporter (Q01959 whole entry): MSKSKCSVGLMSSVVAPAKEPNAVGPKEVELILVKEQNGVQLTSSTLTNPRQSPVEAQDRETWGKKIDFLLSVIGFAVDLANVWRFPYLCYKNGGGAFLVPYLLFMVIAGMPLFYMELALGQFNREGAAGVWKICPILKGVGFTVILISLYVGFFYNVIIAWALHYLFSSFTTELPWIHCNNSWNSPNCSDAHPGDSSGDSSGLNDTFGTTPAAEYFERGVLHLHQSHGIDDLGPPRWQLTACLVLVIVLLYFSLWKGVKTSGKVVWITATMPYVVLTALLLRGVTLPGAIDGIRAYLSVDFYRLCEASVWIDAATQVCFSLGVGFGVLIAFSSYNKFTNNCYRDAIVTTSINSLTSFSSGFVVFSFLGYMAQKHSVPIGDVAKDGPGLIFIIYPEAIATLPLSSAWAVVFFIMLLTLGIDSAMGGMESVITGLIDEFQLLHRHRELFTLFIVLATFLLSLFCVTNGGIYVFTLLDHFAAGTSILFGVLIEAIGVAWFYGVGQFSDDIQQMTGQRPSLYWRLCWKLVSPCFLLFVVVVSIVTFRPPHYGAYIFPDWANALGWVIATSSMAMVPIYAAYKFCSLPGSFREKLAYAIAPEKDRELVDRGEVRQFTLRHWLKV

SMILES	AC50 [1]	AC50 [2]	AC50 [3]	AC50 [4]	AC50 [5]	AC50 [6]	AC50 [7]	AC50 [8]	AC50 [9]	AC50 [10]	AC50 [11]	AC50 [12]
CN1CCC[C@@H]1Cc1c[nH]c2ccc(CCS(=O)(=O)c3ccccc3)cc12	27.7 µM	> 10 µM	17.8 µM	26.6 µM	–	–	–	–	–	–	–	–
O=S(=O)(O)CCS [2-MERCAPTOETHANESULFONIC ACID]	> 30 µM	> 30 µM	> 30 µM	> 30 µM	> 30 µM	–	–	–	–	–	–	–
O=C(O)CCCc1ccc(N(CCCl)CCCl)cc1 [CHLORAMBUCIL]	> 30 µM	> 30 µM	> 30 µM	> 30 µM	> 30 µM	–	–	–	–	–	–	–
Cn1c(=O)c2c(ncn2CC(O)CO)n(C)c1=O (configuration not stated) [DYPHYLLINE]	> 30 µM	> 30 µM	> 30 µM	> 30 µM	> 30 µM	–	–	–	–	–	–	–
CCC(=O)O[C@@H](O[P@](=O)(CCCCc1ccccc1)CC(=O)N1C[C@H](C2CCCCC2)C[C@H]1C(=O)O)C(C)C [FOSINOPRIL]	> 30 µM	> 30 µM	> 30 µM	> 30 µM	> 30 µM	> 30 µM	> 30 µM	> 30 µM	> 30 µM	> 30 µM	–	–
CC1(C)O[C@@H]2C[C@H]3[C@@H]4CCC5=CC(=O)CC[C@]5(C)[C@@]4(F)[C@@H](O)C[C@]3(C)[C@]2(C(=O)CCl)O1 [HALCINONIDE]	> 30 µM	> 30 µM	> 30 µM	> 30 µM	> 30 µM	–	–	–	–	–	–	–
CCOc1cc(N)c(Cl)cc1C(=O)NCC1CN(Cc2ccc(F)cc2)CCO1 (configuration not stated) [MOSAPRIDE]	> 30 µM	> 30 µM	> 30 µM	> 30 µM	> 30 µM	–	–	–	–	–	–	–
CN1CCC[C@H]1c1cccnc1 [NICOTINE]	> 30 µM	> 30 µM	> 30 µM	> 30 µM	–	–	–	–	–	–	–	–
CN(C)c1cc(CNCC(C)(C)C)c(O)c2c1C[C@H]1C[C@H]3[C@H](N(C)C)C(O)=C(C(N)=O)C(=O)[C@@]3(O)C(O)=C1C2=O [OMADACYCLINE]	> 30 µM	> 30 µM	> 30 µM	> 30 µM	> 30 µM	> 30 µM	> 30 µM	> 30 µM	–	> 30 µM	> 10 µM	> 30 µM
COc1ccnc(C[S+]([O-])c2nc3ccc(OC(F)F)cc3[nH]2)c1OC (configuration not stated) [PANTOPRAZOLE]	–	–	–	–	> 30 µM	> 30 µM	> 10 µM	> 10 µM	> 10 µM	> 10 µM	> 30 µM	> 10 µM

Source: ChEMBL document CHEMBL5291721, “A preclinical secondary pharmacology resource illuminates target-adverse drug reaction associations of marketed drugs” (Nat Commun, 2023)
